Reference: the supplement of paper PMC10307832

Key:
Experiment in all cases: relative viability (nuclei count vs DMSO), 5 days (fraction); higher = more cells survive
BEN = test system: BEN
Method in brief: (§1)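 Lung cancer cell lines, seeded in 1536-well plates, were treated the following day by pin tool with a single drug or with five library-drug doses (not always all listed) in √10 steps on top of a fixed anchor-drug dose. Cells were fixed and nuclei stained in one step after 5 days, and nuclei were counted. Relative viability is the nuclei count for treated wells divided by that for vehicle wells, reported as medians of duplicate plates.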

ChaGo-K-1 = test system: ChaGo-K-1
Method in brief: as §1

LC-2-ad = test system: LC-2-ad
Method in brief: as §1

LCLC-97TM1 = test system: LCLC-97TM1
Method in brief: as §1

LK-2 = test system: LK-2
Method in brief: as §1

LU99A = test system: LU99A
Method in brief: as §1

LXF-289 = test system: LXF-289
Method in brief: as §1

NCI-H1355 = test system: NCI-H1355
Method in brief: as §1

NCI-H1651 = test system: NCI-H1651
Method in brief: as §1

NCI-H1666 = test system: NCI-H1666
Method in brief: as §1

NCI-H1944 = test system: NCI-H1944
Method in brief: as §1

NCI-H1975 = test system: NCI-H1975
Method in brief: as §1

NCI-H2087 = test system: NCI-H2087
Method in brief: as §1

NCI-H2342 = test system: NCI-H2342
Method in brief: as §1

NCI-H358 = test system: NCI-H358
Method in brief: as §1

NCI-H596 = test system: NCI-H596
Method in brief: as §1

NCI-H650 = test system: NCI-H650
Method in brief: as §1

NCI-H661 = test system: NCI-H661
Method in brief: as §1

NCI-H838 = test system: NCI-H838
Method in brief: as §1

PC-3 [JPC-3] = test system: PC-3 [JPC-3]
Method in brief: as §1

SK-MES-1 = test system: SK-MES-1
Method in brief: as §1

## CCN(CC)CCCCNc1ncc2cc(-c3cc(OC)cc(OC)c3)c(NC(=O)NC(C)(C)C)nc2n1 + CCNC(=O)c1noc(-c2cc(C(C)C)c(O)cc2O)c1-c1ccc(CN2CCOCC2)cc1 [Luminespib] (partner 0.01 µM)
BEN; first compound 0.01 µM
  relative viability: 0.249
BEN; first compound 0.03162 µM
  relative viability: 0.243
BEN; first compound 0.1 µM
  relative viability: 0.545
BEN; first compound 0.3162 µM
  relative viability: 0.496
BEN; first compound 1 µM
  relative viability: 0.297
ChaGo-K-1; first compound 0.01 µM
  relative viability: 0.618
ChaGo-K-1; first compound 0.03162 µM
  relative viability: 0.638
ChaGo-K-1; first compound 0.1 µM
  relative viability: 0.727
ChaGo-K-1; first compound 0.3162 µM
  relative viability: 0.679
ChaGo-K-1; first compound 1 µM
  relative viability: 0.811
LC-2-ad; first compound 0.01 µM
  relative viability: 0.971
LC-2-ad; first compound 0.03162 µM
  relative viability: 1.12
LC-2-ad; first compound 0.1 µM
  relative viability: 1.21
LC-2-ad; first compound 0.3162 µM
  relative viability: 1.04
LC-2-ad; first compound 1 µM
  relative viability: 1.11
LCLC-97TM1; first compound 0.01 µM
  relative viability: 0.743
LCLC-97TM1; first compound 0.03162 µM
  relative viability: 0.867
LCLC-97TM1; first compound 0.1 µM
  relative viability: 1.02
LCLC-97TM1; first compound 0.3162 µM
  relative viability: 0.818
LCLC-97TM1; first compound 1 µM
  relative viability: 0.775
LK-2; first compound 0.01 µM
  relative viability: 0.153
LK-2; first compound 0.03162 µM
  relative viability: 0.207
LK-2; first compound 0.1 µM
  relative viability: 0.202
LK-2; first compound 0.3162 µM
  relative viability: 0.183
LK-2; first compound 1 µM
  relative viability: 0.184
LU99A; first compound 0.01 µM
  relative viability: 0.301
LU99A; first compound 0.03162 µM
  relative viability: 0.251
LU99A; first compound 0.1 µM
  relative viability: 0.197
LU99A; first compound 0.3162 µM
  relative viability: 0.25
LU99A; first compound 1 µM
  relative viability: 0.27
LXF-289; first compound 0.01 µM
  relative viability: 0.727
LXF-289; first compound 0.03162 µM
  relative viability: 0.668
LXF-289; first compound 0.1 µM
  relative viability: 0.699
LXF-289; first compound 0.3162 µM
  relative viability: 0.801
LXF-289; first compound 1 µM
  relative viability: 0.577
NCI-H1355; first compound 0.01 µM
  relative viability: 0.795
NCI-H1355; first compound 0.03162 µM
  relative viability: 0.824
NCI-H1355; first compound 0.1 µM
  relative viability: 0.704
NCI-H1355; first compound 0.3162 µM
  relative viability: 0.738
NCI-H1355; first compound 1 µM
  relative viability: 0.649
NCI-H1651; first compound 0.01 µM
  relative viability: 0.886
NCI-H1651; first compound 0.03162 µM
  relative viability: 0.875
NCI-H1651; first compound 0.1 µM
  relative viability: 0.779
NCI-H1651; first compound 0.3162 µM
  relative viability: 1.33
NCI-H1651; first compound 1 µM
  relative viability: 0.781
NCI-H1666; first compound 0.01 µM
  relative viability: 0.944
NCI-H1666; first compound 0.03162 µM
  relative viability: 0.971
NCI-H1666; first compound 0.1 µM
  relative viability: 1.04
NCI-H1666; first compound 0.3162 µM
  relative viability: 1.02
NCI-H1666; first compound 1 µM
  relative viability: 0.794
NCI-H1944; first compound 0.01 µM
  relative viability: 0.705
NCI-H1944; first compound 0.03162 µM
  relative viability: 0.747
NCI-H1944; first compound 0.1 µM
  relative viability: 0.762
NCI-H1944; first compound 0.3162 µM
  relative viability: 0.822
NCI-H1944; first compound 1 µM
  relative viability: 0.603
NCI-H1975; first compound 0.01 µM
  relative viability: 0.161
NCI-H1975; first compound 0.03162 µM
  relative viability: 0.148
NCI-H1975; first compound 0.1 µM
  relative viability: 0.201
NCI-H1975; first compound 0.3162 µM
  relative viability: 0.366
NCI-H1975; first compound 1 µM
  relative viability: 0.199
NCI-H2087; first compound 0.01 µM
  relative viability: 0.172
NCI-H2087; first compound 0.03162 µM
  relative viability: 0.154
NCI-H2087; first compound 0.1 µM
  relative viability: 0.161
NCI-H2087; first compound 0.3162 µM
  relative viability: 0.177
NCI-H2087; first compound 1 µM
  relative viability: 0.158
NCI-H2342; first compound 0.01 µM
  relative viability: 0.775
NCI-H2342; first compound 0.03162 µM
  relative viability: 0.833
NCI-H2342; first compound 0.1 µM
  relative viability: 0.768
NCI-H2342; first compound 0.3162 µM
  relative viability: 0.633
NCI-H2342; first compound 1 µM
  relative viability: 0.811
NCI-H358; first compound 0.01 µM
  relative viability: 0.429
NCI-H358; first compound 0.03162 µM
  relative viability: 0.193
NCI-H358; first compound 0.1 µM
  relative viability: 0.348
NCI-H358; first compound 0.3162 µM
  relative viability: 0.503
NCI-H358; first compound 1 µM
  relative viability: 0.347
NCI-H596; first compound 0.01 µM
  relative viability: 1.03
NCI-H596; first compound 0.03162 µM
  relative viability: 1.05
NCI-H596; first compound 0.1 µM
  relative viability: 1.02
NCI-H596; first compound 0.3162 µM
  relative viability: 1.01
NCI-H596; first compound 1 µM
  relative viability: 0.621
NCI-H650; first compound 0.01 µM
  relative viability: 0.74
NCI-H650; first compound 0.03162 µM
  relative viability: 0.729
NCI-H650; first compound 0.1 µM
  relative viability: 0.736
NCI-H650; first compound 0.3162 µM
  relative viability: 0.864
NCI-H650; first compound 1 µM
  relative viability: 0.848
NCI-H661; first compound 0.01 µM
  relative viability: 0.922
NCI-H661; first compound 0.03162 µM
  relative viability: 0.964
NCI-H661; first compound 0.1 µM
  relative viability: 0.968
NCI-H661; first compound 0.3162 µM
  relative viability: 0.982
NCI-H661; first compound 1 µM
  relative viability: 0.925
NCI-H838; first compound 0.01 µM
  relative viability: 0.344
NCI-H838; first compound 0.03162 µM
  relative viability: 0.244
NCI-H838; first compound 0.1 µM
  relative viability: 0.304
NCI-H838; first compound 0.3162 µM
  relative viability: 0.304
NCI-H838; first compound 1 µM
  relative viability: 0.3
PC-3 [JPC-3]; first compound 0.01 µM
  relative viability: 0.814
PC-3 [JPC-3]; first compound 0.03162 µM
  relative viability: 0.738
PC-3 [JPC-3]; first compound 0.1 µM
  relative viability: 0.725
PC-3 [JPC-3]; first compound 0.3162 µM
  relative viability: 0.746
PC-3 [JPC-3]; first compound 1 µM
  relative viability: 0.662
SK-MES-1; first compound 0.01 µM
  relative viability: 0.97
SK-MES-1; first compound 0.03162 µM
  relative viability: 0.762
SK-MES-1; first compound 0.1 µM
  relative viability: 0.832
SK-MES-1; first compound 0.3162 µM
  relative viability: 0.798
SK-MES-1; first compound 1 µM
  relative viability: 0.576
